Reference: patent US20200397855A1, “MODULATION OF PLA2-G1B IN THERAPY” (priority 2018, published 2020)

Assays:
[1] = target: T1, gC1qR (Homo sapiens, UniProt Q07021); test: gC1qR-peptides binding assay (ELISA); conditions: peptide coated on microplate, His-tag-gC1qR 0 to 3 μg/well, FIG. 12
T1 sequence (Q07021 74-282): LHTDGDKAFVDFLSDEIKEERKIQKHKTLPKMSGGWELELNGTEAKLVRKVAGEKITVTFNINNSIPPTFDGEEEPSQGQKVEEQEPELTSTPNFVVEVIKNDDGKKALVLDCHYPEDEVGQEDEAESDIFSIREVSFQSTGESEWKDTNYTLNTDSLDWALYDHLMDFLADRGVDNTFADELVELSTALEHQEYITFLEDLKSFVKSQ
Protocol: The unbound protein was removed; the wells washed 2× with TBST (20 mM Tris-HCl pH 7.5, 150 mM NaCl, and 0.05% Tween-20) and the unreacted sites blocked by incubation (30 min, room temp) with 300 μl of 3% BSA in TBST. After washing (2× with TBST), the microtiter plate bound peptides was incubated (2 h, room temp.) with different amount of His-tag-gC1qR ranging from 0 to 3 μg/well in triplicate. After washing (5 times with TBST), 100 μl of anti-His tag-HRP antibody (1:1000; 71840-3, Merck) in 3% BSA in TBST was added per well and incubated for 2 h at room temperature. Microplates wells were then washed (5 times with TBST) and 100 μl of TMB ELISA substrate standard solution (UP664781, Interchim) was added per well. Reaction was stopped with 100 μl per well of a H2SO4 solution at 0.16M and OD at 450 nm was measured on a microplate reader (Tecan Infinite M1000 Pro).

[2] = system: pSTAT5 NT in CD4 T cells stimulated with IL-7; test: PLA2-GIB bioassay on CD4 T cells: pSTAT5 nuclear translocation in response to IL-7 (confocal microscopy); type: cell-based, human; conditions: for effect on nuclear translocation of phosphoSTAT5 (pSTAT5 NT) induced by IL-7: buffer, FIG. 1A; for pSTAT5 NT in response to IL-7: FIG. 2
Excerpt: Purification of Human CD4 T-lymphocytes—Venous blood was obtained from healthy volunteers through the EFS (Etablissement Francais du Sang, Centre Necker-Cabanel, Paris). CD4 T-cells were purified from whole blood using RosetteSep Human CD4+ T cell Enrichment Cocktail (Stem Cell, 15062). This cocktail contains mouse and rat monoclonal antibodies purified from mouse ascites fluid or hybridoma culture supernatant, by affinity chromatography using protein A or Protein G sepharose. These antibodies are bound in bispecific tetrameric antibody complexes which are directed against cell surface antigens on human hematopoietic cells (CD8, CD16, CD19, CD36, CD56 CD66b, TCRγ/δ) and glycophorin A on red blood cells. The rosetteSep antibody cocktail crosslinks unwanted cells in human whole blood to multiple red blood cells, forming immunorosettes. This increases the density of unwanted cells, such that they pellet along with the free red blood cells when centrifuged over a buoyant density medium such as lymphocytes separation medium (Eurobio, CMSMSL01-01).
Whole blood was incubated with RosetteSep Human CD4+ T cell Enrichment Cocktail at 50 μl/ml for 20 minutes at room temperature under gentle shaking (100 rpm), diluted with an equal volume of PBS+2% foetal bovine serum (FBS) and mixed gently. The diluted samples were centrifuged 20 minutes at 1200×g on top of lymphocytes separation medium. The enriched cells were then collected from the density medium at plasma interface and washed twice with PBS+2% FBS. Cells were subsequently resuspended in RPMI 1640 medium (Lonza) supplemented with 5% FBS, 50 mM HEPES pH 7.4, glutamine, penicillin, streptomycin and fungizone (complete medium), counted with a Moxi Z mini automated cell counter (ORFLO, MXZ000). Cells suspension was adjusted at 7×10^6 cells/ml and equilibrated at least 2 h at 37° C. in a 5% CO2 humidified atmosphere.

[3] = system: PLA2-GIB activity on the membrane of Jurkat E6.1 T cells; test: PLA2-GIB enzymatic assay on [3H] arachidonic acid labelled Jurkat E6.1 T cells; type: cell-based, human; conditions: for PLA2-GIB activity vs scrambled PEP3: pretreatment 21 h
Protocol: (§1) Jurkat E6.1 T cells (ECACC 88042803) or gC1qR KO Jurkat E6.1 T cells were incubated for 17 h at 5×10^5 cells/ml with 1 μCi/ml of arachidonic acid [5,6,8,9,11,14,15-^3H(N)] (Perkin Elmer, NET298Z250UC) in RPMI 1640 medium (Lonza) supplemented with 10% FBS, 50 mM HEPES pH 7.4, glutamine, penicillin, streptomycin and fungizone at 2 ml/well in 6-well plates at 37° C. in a 5% CO2 humidified atmosphere. Cells were washed twice with RPMI with 10% FBS by centrifugation at 300×g for 10 minutes at room temperature and then frozen in 90% FBS 10% DMSO at 10^7 cells/ml/vial at −80° C. Percent of [3H] arachidonic acid in CD4 T cells is the (1 minus ratio of [3H] arachidonic acid in the supernatant of CD4 T cells without cells (cpm/ml) on total [3H] arachidonic acid in supernatant and cells (cpm/ml).
To test PLA2-GIB activity on [3H] arachidonic acid labelled Jurkat E6.1 T lymphocytes, cells were unfrozen in 10% FBS RPMI preheated at 37° C. by centrifugation at 300×g for 10 minutes at room temperature, washed twice in 2.5% FBS RPMI, and equilibrated at 5×10^4 or 10^5 Jurkat E6.1 T cells/400 μl/well in 24-well polystyrene plates for 1 h 30 at 37° C. in a 5% CO2 humidified atmosphere. Then HCV core solution or vehicle dilution in 2.5% FBS RPMI at 5.95 μM was mixed with an equal volume of a PLA2-GIB solution at 630 nM or 2 μM 2.5% FBS RPMI and 100 μl were added per well at the same time for 2 h. For peptide treatments, cells were pretreated for 2 h, 4 h or 21 h, as indicated on figures, with 50 μl per well of peptide solutions at 110 μM or 55 μM in 2.5% FBS RPMI. Then 50 μl per well of PLA2-GIB at 630 nM or 2 μM 2.5% FBS RPMI or medium alone were added for 2 h. Cells and supernatant were collected in eppendorf tubes and centrifuged at 580×g for 10 minutes at room temperature. The [3H] arachidonic acid released in cell supernatant was quantified in 300 μl with 16 ml of Ultima gold (Perkin Elmer, 6013329) in low diffusion vials (Perkin Elmer, 6000477) on a counter (tri-Carb 2800 TR liquid scintillation analyzer, Perkin Elmer).

[4] = system: PLA2-GIB enzymatic activity on CD4 T cells membranes; test: PLA2-GIB enzymatic assay on [3H] arachidonic acid labelled CD4 T cells; type: cell-based, human
Protocol: as §1, with “PLA2-GIB enzymatic assay on [3H] arachidonic acid labelled CD4 T cells or Jurkat” for “Jurkat”, “cells—Purified CD4 T-cells” for “cells (ECACC 88042803) or gC1qR KO Jurkat E6.1 T cells”, “16” for “17”, “2×10^6” for “5×10^5”, “580×g” for “300×g”
To test PLA2-GIB activity on [3H] arachidonic acid labelled CD4 T lymphocytes, cells were unfrozen in 10% FBS RPMI preheated at 37° C. by centrifugation at 580×g for 10 minutes at room temperature, washed twice in 2.5% FBS RPMI, and equilibrated at 2×10^5 CD4 T cells/400 μl/well in 24-well polystyrene plates for 1 h 30 at 37° C. in a 5% CO2 humidified atmosphere. […] Cells and supernatant were collected in eppendorf tubes and centrifuged at 580×g for 10 minutes at room temperature. The [3H] arachidonic acid released in cell supernatant was quantified in 300 μl with 16 ml of Ultima gold (Perkin Elmer, 6013329) in low diffusion vials (Perkin Elmer, 6000477) on a counter (tri-Carb 2800 TR liquid scintillation analyzer, Perkin Elmer).
To study PLA2-GIB effect on CD4 T cells membranes we developed a new enzymatic assay in which CD4 T cells are labelled with [3H] arachidonic acid. When these cells are exposed to PLA2-GIB the enzymatic activity on CD4 T cells releases [3H] arachidonic acid. The quantification of [3H] arachidonic acid allowed us to quantify PLA2-GIB activity.

[5] = peptide alone, without PLA2-GIB, FIG. 5B

Molecule: NH2-WNWDSKILSDPAWNS-COOH (H-WNWDSKILSDPAWNS-OH) [Scrambled PEP3, Scrambled PEP3 control peptide]
- binding to gC1qR [1]: essentially do not

Molecule: NH2-PWNASWSNKSLDDIW-COOH (H-PWNASWSNKSLDDIW-OH) [PEP3]
- inhibition of pSTAT5 NT ([2]; 0.025 μg/ml PEP3 with 5 nM PLA2-GIB, FIG. 5B): 18%
- inhibition of pSTAT5 NT ([2]; 0.5 μg/ml PEP3 alone, n=3 donors, FIG. 5C): 5%
- inhibition of pSTAT5 NT ([2]; 2.5 μg/ml PEP3 with 5 nM PLA2-GIB, FIG. 5B): 51%
- effect on pSTAT5 NT [2, 5]: no effect
- PLA2-GIB activity vs scrambled PEP3 ([3]; WT Jurkat E6.1 cells, FIG. 13): increased significantly
- PLA2-GIB activity on the membrane of Jurkat E6.1 T cells vs scrambled PEP3 ([3]; pretreatment 4 h or more, peptide 11 μM, 200 nM PLA2-GIB, FIG. 11): significantly increased
- binding to gC1qR [1]: binds to gC1qR

Molecule: C1q: Complement component C1q from human serum (Sigma C1740), natural ligand of gC1qR
- inhibition of pSTAT5 NT ([2]; C1q (10 μg/ml) with 5 nM PLA2-GIB, FIG. 6A): 75-85%
- inhibition of pSTAT5 NT ([2]; C1q alone (10 μg/ml), FIG. 6A): 40%

Molecule: PLA2-GIB: Recombinant human group IB pancreatic phospholipase A2, produced in E. coli or CHO-S (SEQ ID NO: 1)
- effect on nuclear translocation of phosphoSTAT5 (pSTAT5 NT) induced by IL-7 ([2]; 5 nM PLA2-GIB alone): does not affect
- pSTAT5 NT in response to IL-7 ([2]; 5 nM PLA2-GIB, compared with no PLA2-GIB): biologically similar
- inhibition of pSTAT5 NT ([2]; 75 nM PLA2-GIB alone, FIG. 4): 49%
- effect on nuclear translocation of phosphoSTAT5 (pSTAT5 NT) induced by IL-7 ([2]; 75 nM PLA2-GIB alone): significantly decreases
- pSTAT5 NT in response to IL-7 ([2]; 75 nM PLA2-GIB): 50%
- inhibition of pSTAT5 NT ([2]; 250 nM PLA2-GIB alone, FIG. 4): 79%
- pSTAT5 NT in response to IL-7 ([2]; 250 nM PLA2-GIB): 10%

Molecule: NH2-SGEGGWSNGSLVDIM-COOH (H-SGEGGWSNGSLVDIM-OH) [HP Pg]
- PLA2-GIB activity vs scrambled PEP3 ([3]; 200 nM PLA2-GIB, FIG. 15): significantly increased

Molecule: NH2-PWNATWTQRTLDDIW-COOH (H-PWNATWTQRTLDDIW-OH) [CTL peptide, control peptide (CTL), reference compound]
- effect on pSTAT5 NT [2, 5]: no effect
- effect on pSTAT5 NT ([2]; peptide with 5 nM PLA2-GIB, FIG. 5B): no effect
- binding to gC1qR [1]: essentially do not

B1: HCV core protein: Recombinant HCV core protein (Prospec HCV-011), SEQ ID NO: 43 (protein)
chain: MSTNPKPQRKTKRNTIRRPQDVKFPGGGQIVGGVYLLPRRGPRLGVRATRKTSERSQPRGRRQPIPKARRPEGRTWAQPGYPWPLYGNEGMGWAGWLLSPRGSRPSWGPTDPRRRSRNLGKVIDTLTCGFADLMGYVPLVGAPLGGAARALAHGVRALEDGVNYATGNLPGCSFSISLWXLLSCLTIPASA
modifications: not fully specified; X: residue not identified in the source
- release of [3H] arachidonic acids by CD4 T cells ([4]; 10 μg/ml HCV core protein alone, FIG. 8B): slightly and significantly increases
- fold increase of PLA2-GIB activity ([4]; 10 μg/ml HCV core protein, 63 nM PLA2-GIB, FIG. 8A): 26 fold
- fold increase of PLA2-GIB activity ([4]; 10 μg/ml HCV core protein, 63 nM PLA2-GIB, n=3 donors, FIG. 8B): 26 fold
- fold increase of PLA2-GIB activity ([4]; 10 μg/ml HCV core protein, 200 nM PLA2-GIB, FIG. 8A): 16 fold
- fold increase of PLA2-GIB activity ([4]; 10 μg/ml HCV core protein, 200 nM PLA2-GIB, n=3 donors, FIG. 8B): 16 fold
- fold increase of PLA2-GIB activity ([4]; 20 μg/ml HCV core protein, 63 nM PLA2-GIB, FIG. 8A): 36 fold
- fold increase of PLA2-GIB activity ([4]; 20 μg/ml HCV core protein, 200 nM PLA2-GIB, FIG. 8A): 26 fold
- release of [3H] arachidonic acids by CD4 T cells ([4]; HCV core protein alone at 10 and 20 μg/ml, FIG. 8A): slightly induces
- PLA2-GIB activity on the membrane of Jurkat E6.1 T cells ([3]; HCV core 595 nM (10 μg/ml), FIG. 14): significantly increased
